The target of the test is Dipeptidyl peptidase 2 (Homo sapiens, UniProt Q9UHL4). Description: Dipeptidyl Peptidase Inhibition Assay.

A word on the IC50: it is the midpoint of a concentration-inhibition curve. Read a high IC50 as lower potency.

With `C[C@@H]1C(=O)NCCCN1C(=O)C[C@H](N)Cc1cc(F)ccc1F` [(3R)-4-[(3R)-3-amino-4-(2,5-difluorophenyl)butanoyl]-3-methyl-1,4-diazepan-2-one], the IC50 was above 100 µM.

As for `C[C@@H]1C(=O)N[C@@H](C(F)(F)F)CCN1C(=O)C[C@H](N)Cc1cc(F)c(F)cc1F` [(3R,7R)-4-[(3R)-3-amino-4-(2,4,5-trifluorophenyl)butanoyl]-3-methyl-7-(trifluoromethyl)-1,4-diazepan-2-one], the IC50 was above 100 µM.

(Values after BindingDB's records for doi:10.1016/j.bmcl.2007.01.039 (Merck Research Laboratories, 2007).)
